B1: HMGB1: HMGB1 added to UPEC UTI89 biofilm; probably the recombinant human HMGB1 (rHMGB1) (protein, UniProt P09429 1-215, looked up)
High mobility group protein B1: MGKGDPKKPRGKMSSYAFFVQTCREEHKKKHPDASVNFSEFSKKCSERWKTMSAKEKGKFEDMAKADKARYEREMKTYIPPKGETKKKFKDPNAPKRPPSAFFLFCSEYRPKIKGEHPGLSIGDVAKKLGEMWNNTAADDKQPYEKKAAKLKEKYEKDIAAYRAKGKPDAAKKGVVKAEKSKKKKEEEEDEEDEEDEEEEEDEEDEDEEEDDDDE

Experiments:
[1] = test system: Burkholderia cenocepacia; format: in vivo, C57BL/6 mice; settings: for bacterial burden (CFUs) in BAL: 10^7 CFU intratracheally, 5 μg added simultaneously, after 18 hours, vs control
Protocol: C57BL/6 mice were infected with 10^7 CFU i.t., and simultaneously received rHMGB1 or mHMGB1 (C45S). After 18 h, (FIG. 2A) B. cenocepacia CFUs were quantified in BAL, (FIG. 2B) total host cells infiltrating into the lung were enumerated in BAL, and (FIG. 2C) BAL cells were stained with anti CD45, CD11b and Ly-6G to measure neutrophil migration. Bars represent standard deviation. *P<0.05; **P<0.005. (FIG. 2D) Lungs were collected 72 hpi. Tissue was fixed and embedded in paraffin, sectioned and stained with H&E. All panels show a magnification of 10×.
C57BL/6 mice were infected with 10^7 CFU i.t., and simultaneously received […] rHMGB1 or mHMGB1 (C45 S). (FIG. 7A) Aggregates of B. cenocepacia were visible by fluorescence microscopy in sections probed with an α-B. cenocepacia antibody. After 18 h, (FIG. 7B) CFUs were quantified in BAL, and (FIG. 7C) BAL cells were stained with α-CD45, CD11b, and Ly-6G to measure neutrophil migration. Bars represent SD. *P<0.05.
To determine the antibiofilm function of mHMGB1 (C45S) in vivo, Applicants employed two distinct animal models. In the first model Applicants tested the ability of rHMGB1 and mHMGB1 (C45S) to clear preformed NTHI biofilms in Applicants' well-established chinchilla model of experimental OM (Novotny et al. 2011; 2013b; Novotny et al. 2016). Applicants first established NTHI strain 86-028NP biofilms in the chinchilla middle ear for 4 days. Applicants then treated the 4-day old NTHI biofilm with two doses (day 4 and 5; 5 μg each) of rHMGB1, mHMGB1 (C45S) or diluent. On day 6 the animals were sacrificed and the middle ears were blindly scored for the presence of any remaining biofilm. […] In the second model, Applicants tested the ability of rHMGB1 and mHMGB1 (C45S) to inhibit biofilm development of Burkholderia cenocepacia in the murine airways. C57BL/6 mice were infected with 10^7 CFU of B. cenocepacia intratracheally and 5 μg of rHMGB1 or mHMGB1 (C45S) was added simultaneously. After 18 hours, the animals were sacrificed and bronchoalveolar lavage (BAL) and lungs were collected. […] Lastly, Applicants validated the inflammatory activity of rHMGB1 and mHMGB1 (C45S) in an in vivo chemotaxis model to determine the ability to recruit neutrophils (Orlova et al. 2007; Penzo et al. 2010). C57BL/6 mice were injected with 5 μg of either mHMGB1 (C45S) or rHMGB1 or 1 ml of 4% thioglycollate. After 4h, mice were sacrificed and total neutrophils were quantified in peritoneal lavage.

[2] = test system: branched DNA structures; assay: Affinity to branched DNA structures; format: binding; settings: effect of the C45S mutation
[3] = test system: NTHI strain 86-028NP biofilms; assay: Chinchilla model of experimental otitis media, clearance of preformed NTHI biofilms; format: in vivo; settings: 4-day old NTHI biofilm, two doses (day 4 and 5; 5 μg each) into middle ear, scored day 6, vs diluent
Protocol: Diluent, 5 μg rHMGB1, or 5 mHMGB1 (C45S) were delivered directly to the middle ears of chinchillas at 4 and 5 days post infection with NTHI. Animals were sacrificed 24 h later and their middle ears were imaged (FIG. 1A) and blindly scored (FIG. 1B) based on the criteria described in the bottom of FIG. 1A. Bars represent SEM. ***P<0.001.
Diluent or 5 μg rHMGB1 or mHMGB1 (C45 S) were delivered directly to middle ears of chinchillas at 4 and 5 days post infection with NTHI. Animals were sacrificed 24 h later, and their middle ears were imaged (FIG. 6A) and blindly scored (FIG. 6B) based on the criteria described in the bottom of (FIG. 6A). Bars represent SEM. ***P<0.001.
To determine the antibiofilm function of mHMGB1 (C45S) in vivo, Applicants employed two distinct animal models. In the first model Applicants tested the ability of rHMGB1 and mHMGB1 (C45S) to clear preformed NTHI biofilms in Applicants' well-established chinchilla model of experimental OM (Novotny et al. 2011; 2013b; Novotny et al. 2016). Applicants first established NTHI strain 86-028NP biofilms in the chinchilla middle ear for 4 days. […] On day 6 the animals were sacrificed and the middle ears were blindly scored for the presence of any remaining biofilm. […] After 4h, mice were sacrificed and total neutrophils were quantified in peritoneal lavage.

[4] = test system: Nontypeable Haemophilus influenzae; assay: Anti-biofilm effect on in vitro preformed 24-hour biofilm (CLSM, COMSTAT); format: cell-based; settings: 5 μg/ml added at 24h to preformed biofilm, 16 h incubation; decrease vs control
Protocol: (§1) To determine the antibiofilm function of the variant HMGB1 (mHMGB1 (C45S)), Applicants expressed and purified human recombinant HMGB1 (rHMGB1) and recombinant variant HMGB1 (mHMGB1 (C45S)) in E. coli. In vitro preformed 24-hour biofilms formed by multiple human pathogens as indicated in Table 1 were incubated with 5 μg/ml rHMGB1 or mHMGB1 (C45S) for 16 hours. Enterococcus faecium biofilms were incubated with 20 μg/ml rHMGB1 or mHMGB1 (C45S) for 16 hours. Biofilms were washed and stained with LIVE/DEAD® stain and analyzed using a confocal laser scanning microscope and COMSTAT analysis. Applicants observed that mHMGB1 (C45S) was effective at disrupting each of the in vitro preformed biofilms as indicated by significant reduction in average thickness and biomass compared to the control (Table 1).
(§2) HMGB1 isoforms (5 μg/ml) were added at 24h to in vitro preformed bacterial biofilms. After 16 h of incubation (40h total), biofilms were washed and stained with LIVE/DEAD® followed by visualization using CLSM. Biofilms were analyzed by Comstat to calculate average thickness^a (AT) and biomass^a (BM).

[5] = test system: Uropathogenic E. coli; assay: as above; format: cell-based; settings: 5 μg/ml added at 24h to preformed biofilm, 16 h incubation; decrease vs control
Protocol: as §1, §2

[6] = test system: Enterococcus faecium; assay: as above; format: cell-based; settings: 20 μg/ml added at 24h to preformed biofilm, 16 h incubation; decrease vs control
Protocol: as §1, §2

[7] = test system: Aggregatibacter actinomycetemcomitans; assay: as above; format: cell-based; settings: 5 μg/ml added at 24h to preformed biofilm, 16 h incubation; decrease vs control
Protocol: as §1, §2

[8] = test system: Acinetobacter baumanii; assay: as above; format: cell-based; settings: 5 μg/ml added at 24h to preformed biofilm, 16 h incubation; decrease vs control
Protocol: as §1, §2

[9] = test system: Klebsiella pneumoniae; assay: as above; format: cell-based; settings: 5 μg/ml added at 24h to preformed biofilm, 16 h incubation; decrease vs control
Protocol: as §1, §2

[10] = test system: Enterobacter spp.; assay: as above; format: cell-based; settings: 5 μg/ml added at 24h to preformed biofilm, 16 h incubation; decrease vs control
Protocol: as §1, §2

[11] = test system: Burkholderia cenocepacia; assay: as above; format: cell-based; settings: 5 μg/ml added at 24h to preformed biofilm, 16 h incubation; decrease vs control
Protocol: as §1, §2

[12] = test system: Pseudomonas aeruginosa; assay: as above; format: cell-based; settings: 5 μg/ml added at 24h to preformed biofilm, 16 h incubation; decrease vs control
Protocol: as §1, §2

[13] = test system: Staphylococcus aureus; assay: as above; format: cell-based; design: key: ↓: 20-30% decrease; ↓↓: 31-50% decrease; ↓↓↓: >51% decrease; ↔: No change; settings: 5 μg/ml added at 24h to preformed biofilm, 16 h incubation; decrease vs control
Protocol: as §1, §2

[14] = Consequences of bacterial dispersal from biofilm in vivo (second site infections, sepsis)
From the text: Also, this dispersal effect could result in sepsis.

[15] = test system: Uropathogenic E. coli UTI89; assay: HMGB1 added at seeding and at 24h to UPEC biofilm; format: cell-based; settings: 0.1, 1 and 5 μg/ml added at seeding and at 24h
Protocol: Applicants added HMGB1 at 0.1, 1 and 5 μg/ml at seeding and at 24h to a biofilm formed by Uropathogenic E. coli UTI89. […] Based on this information, Applicants hereby disclose a method for inhibiting, competing or titrating the binding of a deoxyribonucleic acid B II (DNABII) polypeptide to a microbial DNA in a biofilm, comprising, or alternatively consisting essentially of, or yet further consisting of, contacting the microbial DNA in the biofilm with an effective amount of an isolated or recombinant polypeptide comprising a modified high mobility group-box 1 domain (mHMGB1) comprising a C45S substitution thereby inhibiting, competing or titrating the binding of the DNABII polypeptide to the microbial DNA. The contacting can be accomplished in vitro or in vivo. Non-limiting examples of organisms that promote our cause the biofilm include one or more of Burkholderia cenocepacia, Enterobacter spp., Staphylococcus aureus, Klebsiella pneumoniae, Acinetobacter baumanii, Pseudomonas aeruginosa, Enterococcus faecium, Uropathogenic Escherichia coli (UPEC), Non-typeable Haemophilus influenzae (NTHI), and/or Aggregatibacter actinomycetemcomitans.

Molecule | bacterial burden (CFUs) in BAL [1] | lung damage (H&E) ([1]; mouse, in vivo) | clearing of biofilm from the middle ear (blindly scored) [3] | average thickness (AT) [4] | biomass (BM) [4] | average thickness (AT) [5] | biomass (BM) [5] | average thickness (AT) [6] | biomass (BM) [6] | average thickness (AT) [7] | biomass (BM) [7] | average thickness (AT) [8] | biomass (BM) [8] | average thickness (AT) [9] | biomass (BM) [9] | average thickness (AT) [10] | biomass (BM) [10] | average thickness (AT) [11] | biomass (BM) [11] | average thickness (AT) [12] | further results
mHMGB1 (C45S): variant human HMGB1 with the cysteine at position 45 substituted with serine, expressed in E. coli (MGKGDPKKPRGKMSSYAFFVQTCREEHKKKHPDASVNFSEFSKKSSERWK) | effective at reducing the bacterial burden in BAL | more resembled uninfected mouse lungs | very effective at clearing the biofilms from the middle ear | ↓ (20-30% decrease) | ↓ (20-30% decrease) | ↓↓↓ (>51% decrease) | ↓↓↓ (>51% decrease) | ↓↓ (31-50% decrease) | ↓↓ (31-50% decrease) | ↓ (20-30% decrease) | ↓ (20-30% decrease) | ↓↓↓ (>51% decrease) | ↓↓↓ (>51% decrease) | ↓↓↓ (>51% decrease) | ↓↓↓ (>51% decrease) | ↓↓↓ (>51% decrease) | ↓↓↓ (>51% decrease) | ↓↓↓ (>51% decrease) | ↓↓↓ (>51% decrease) | ↓↓↓ (>51% decrease) | B. cenocepacia CFUs in BAL compared to rHMGB1 ([1]; 10^7 CFU i.t., simultaneous treatment, after 18 h, compared to rHMGB1): significant decreases; inflammatory cell infiltration compared to rHMGB1 ([1]; mouse, in vivo): significant decreases; affinity to branched DNA structures [2]: increases the affinity of the molecule to branched DNA structures; biomass (BM) [12]: ↓↓↓ (>51% decrease); average thickness (AT) [13]: ↓↓↓ (>51% decrease); biomass (BM) [13]: ↓↓↓ (>51% decrease); second site infections or sepsis after dispersal of bacteria from biofilm [14]: None of these consequences has been observed
rHMGB1: recombinant HMGB1 derived from a human, expressed and purified in E. coli, used as comparator to mHMGB1 (C45S) [reference compound] | effective at reducing the bacterial burden in BAL | severe inflammation and increased neutrophil response | very effective at clearing the biofilms from the middle ear | ↓ (20-30% decrease) | ↓ (20-30% decrease) | ↓↓ (31-50% decrease) | ↓↓ (31-50% decrease) | ↓↓↓ (>51% decrease) | ↓↓↓ (>51% decrease) | ↓ (20-30% decrease) | ↓ (20-30% decrease) | ↓↓↓ (>51% decrease) | ↓↓ (31-50% decrease) | ↓↓↓ (>51% decrease) | ↓↓↓ (>51% decrease) | ↓↓↓ (>51% decrease) | ↓↓↓ (>51% decrease) | ↓↓↓ (>51% decrease) | ↓↓↓ (>51% decrease) | ↓↓↓ (>51% decrease) | biomass (BM) [12]: ↓↓↓ (>51% decrease); average thickness (AT) [13]: ↔; biomass (BM) [13]: ↔
B1 |  |  |  |  |  |  |  |  |  |  |  |  |  |  |  |  |  |  |  |  | disruption of UPEC biofilms [15]: dose-dependent disruption of UPEC biofilms
